# Legend:
# Assay type in all cases: in vivo, human
# [1] = tested on: adenocarcinoma of the large intestine; test: Example 6: patient with large intestine adenocarcinoma and liver metastases treated with rhodamine 6G; design: Nuclear segments / Lymphocytes (line r11) / Erythrocytes / Hemoglobin / Thrombocytes / Leukocytes / Amylase / Chlorine / Serum iron / Cholesterol / Total bilirubin / Bilirubin (line r8, above 'direct'): unit not given here; conditions: for Erythrocytes / Hemoglobin / Leukocytes / Thrombocytes / Eosinophils / Cholesterol / Monocytes / Total bilirubin / Potassium / ALT / AST / Bilirubin (line r8, above 'direct') / Serum iron / Lymphocytes (line r11) / Nuclear segments / Total protein / Creatinine / Amylase / Chlorine / Indirect bilirubin fraction / direct (line r9) / indirect (line r11) / Basophils / Nuclear rods: Example 6, Patient N; for Eosinophils: normal 0-5; for Cholesterol: normal 1.66-8.3; for Monocytes: normal 2-9%; for Total bilirubin: normal 2.90-6.54; for Potassium: normal 3.5-6.0; for ALT / AST: normal 5-40; for Bilirubin (line r8, above 'direct'): normal 8.5-20.5; for Serum iron: normal 8.8-27.0; for Lymphocytes (line r11): normal 18-; for Nuclear segments: normal 45-70; for Total protein: normal 65.0-80; for Creatinine: normal 85.0; for Amylase: normal 95-110.0; for Chlorine: normal 135.0-; for Indirect bilirubin fraction / direct (line r9): normal to 25%; for indirect (line r11): normal to 100; for Basophils: normal 0-1%; for Nuclear rods: normal 1-6%
# Method: Patient N. Diagnosis: adenocarcinoma of the large intestine. Metastases in the liver. Ascites. Three years previously a resection of the large intestine was performed with insertion of an anastomosis end to end. A full course of polychemo-therapy was given. Two years after the treatment the patient complained of pain in the bottom of the abdomen and tenesmus. The patient presented complaining of acute weakness, constant pain in the abdomen, coughing, dyspnea, ascites, retention of stools. Patient's condition serious, loss of appetite, pale cyanosed skin, abdomen with signs of ascites. […] A lump of irregular shape 2×4 cm in size with irregular edges was detected by computerized tomography in the right renal lobe. A large lump 4×5.4 cm in size and free liquid in the peritoneal cavity were also detected. […] The infusions were administered weekly over the course of 3 months. […] The enemas were administered three times a week over the course of 2 months. […] In the third week of treatment the dyspnea was less severe. In the course of treatment the tumor in the region of the anastomosis decreased in size to 0.2×0.3 cm. After 3 months the treatment was discontinued for 1 month, and was then resumed for a further 2 months.
# [2] = tested on: adenocarcinoma of the right ovary; test: Example 3: patient with ovarian adenocarcinoma treated with rhodamine 6G; conditions: Patient T, 54
# From the text: Patient T. Diagnosis: adenocarcinoma of the right ovary. Metastases in the liver. A hysterectomy had been carried out 4 years before. There was a recurrence of the cancer after a year. The patient complained of pain in the pelvis and difficulty in urination. […] The patient's condition was moderately severe; pale skin. […] The course of treatment lasted 3 months. During the treatment the tumor decreased in size to 1.2×0.9×0.3 cm. […] Blood analyses against the treatment background became normal over 2 months. A full course of treatment with the preparation was carried out over 6 months. During the course of the treatment the tumor in the region of the bladder and rectum disappeared.
# [3] = tested on: Adenocarcinoma of the prostate; test: Example 7: patient with prostate adenocarcinoma treated with rhodamine 6G; conditions: Patient Sh., 55
# Method: The patient presented complaining of a sharp pain when urinating and of retention and reddish color of the urine. On examination: Ultrasound scan—prostate approximately 85 cm^3, tumor with irregular contours, 34×40 mm^2 in size. PSA-49.9 […].
# Needle biopsy—adenocarcinoma of the prostate.
# Diagnosis: Adenocarcinoma of the prostate. The patient refused surgical intervention and chemotherapy.
# At night a suppository containing 2% of the preparation was administered.
# [4] = Patient N, over the course of the treatment (3 months, 1 month pause, 2 months)
substance,measurement,setting,value
"9-(2-ethoxycarbonyl)phenyl)-3,6-bis(ethylamino)2,7-dimethylxanthyl chloride [rhodamine 6G]",Erythrocytes,[1]; 09 Dec. 2004,4.44
same,Hemoglobin,[1]; 09 Dec. 2004,115
same,Leukocytes,[1]; 09 Dec. 2004,5.2
same,Thrombocytes,[1]; 09 Dec. 2004,326
same,Eosinophils,[1]; 09 Dec. 2004,2
same,Cholesterol,[1]; 09 Dec. 2004,5.75
same,Monocytes,[1]; 09 Dec. 2004,10%
same,Total bilirubin,[1]; 09 Dec. 2004,8.4
same,Potassium,[1]; 09 Dec. 2004,2.28
same,ALT,[1]; 09 Dec. 2004,69.2 el
same,AST,[1]; 09 Dec. 2004,45.7 el
same,"Bilirubin (line r8, above 'direct')",[1]; 09 Dec. 2004,3.3
same,Serum iron,[1]; 09 Dec. 2004,54.8
same,Lymphocytes (line r11),[1]; 09 Dec. 2004,58
same,Nuclear segments,[1]; 09 Dec. 2004,6
same,Total protein,[1]; 09 Dec. 2004,65 g/L
same,Creatinine,[1]; 09 Dec. 2004,74 µM
same,Amylase,[1]; 09 Dec. 2004,102.8
same,Chlorine,[1]; 09 Dec. 2004,114.31
same,Indirect bilirubin fraction,[1]; 09 Dec. 2004,84%
same,direct (line r9),[1]; 09 Dec. 2004,5.1%
same,indirect (line r11),[1]; 09 Dec. 2004,89 el
same,Erythrocytes,[1]; 09 Jan. 2005,4.87
same,Hemoglobin,[1]; 09 Jan. 2005,128
same,Leukocytes,[1]; 09 Jan. 2005,5.3
same,Thrombocytes,[1]; 09 Jan. 2005,440
same,Basophils,[1]; 09 Jan. 2005,1%
same,Eosinophils,[1]; 09 Jan. 2005,1
same,Nuclear rods,[1]; 09 Jan. 2005,2%
same,Cholesterol,[1]; 09 Jan. 2005,7.03
same,Monocytes,[1]; 09 Jan. 2005,12%
same,Total bilirubin,[1]; 09 Jan. 2005,8.0
same,Potassium,[1]; 09 Jan. 2005,2.15
same,ALT,[1]; 09 Jan. 2005,79 el
same,AST,[1]; 09 Jan. 2005,29.5 el
same,"Bilirubin (line r8, above 'direct')",[1]; 09 Jan. 2005,2.0
same,Serum iron,[1]; 09 Jan. 2005,42.9
same,Lymphocytes (line r11),[1]; 09 Jan. 2005,69
same,Nuclear segments,[1]; 09 Jan. 2005,5
same,Total protein,[1]; 09 Jan. 2005,82.53 g/L
same,Creatinine,[1]; 09 Jan. 2005,69 µM
same,Amylase,[1]; 09 Jan. 2005,110.0
same,Chlorine,[1]; 09 Jan. 2005,134.2
same,Indirect bilirubin fraction,[1]; 09 Jan. 2005,90%
same,direct (line r9),[1]; 09 Jan. 2005,6.0%
same,indirect (line r11),[1]; 09 Jan. 2005,78.0 el
same,Erythrocytes,[1]; 9 Oct. 2004,3.20
same,Hemoglobin,[1]; 9 Oct. 2004,74
same,Leukocytes,[1]; 9 Oct. 2004,9.2
same,Thrombocytes,[1]; 9 Oct. 2004,120
same,Basophils,[1]; 9 Oct. 2004,1%
same,Eosinophils,[1]; 9 Oct. 2004,1
same,Nuclear rods,[1]; 9 Oct. 2004,0%
same,Cholesterol,[1]; 09 Oct. 2004,6.21
same,Monocytes,[1]; 9 Oct. 2004,36%
same,Total bilirubin,[1]; 09 Oct. 2004,11.0
same,Potassium,[1]; 09 Oct. 2004,2.72
same,ALT,[1]; 09 Oct. 2004,465.8 el
same,AST,[1]; 09 Oct. 2004,265.7 el
same,"Bilirubin (line r8, above 'direct')",[1]; 09 Oct. 2004,3.0
same,Serum iron,[1]; 09 Oct. 2004,190.4
same,Lymphocytes (line r11),[1]; 9 Oct. 2004,35
same,Nuclear segments,[1]; 9 Oct. 2004,2
same,Total protein,[1]; 09 Oct. 2004,51.23 g/L
same,Creatinine,[1]; 09 Oct. 2004,118 µM
same,Amylase,[1]; 09 Oct. 2004,114.0
same,Chlorine,[1]; 09 Oct. 2004,114.20
same,Indirect bilirubin fraction,[1]; 09 Oct. 2004,82%
same,direct (line r9),[1]; 09 Oct. 2004,8.0%
same,indirect (line r11),[1]; 09 Oct. 2004,107.2 el
same,Cholesterol,[1]; 24. Nov. 2004,5.62
same,Total bilirubin,[1]; 24. Nov. 2004,24.2
same,Potassium,[1]; 24. Nov. 2004,2.32
same,ALT,[1]; 24. Nov. 2004,326 el
same,AST,[1]; 24. Nov. 2004,125.8 el
same,"Bilirubin (line r8, above 'direct')",[1]; 24. Nov. 2004,22.3
same,Serum iron,[1]; 24. Nov. 2004,104.7
same,Total protein,[1]; 24. Nov. 2004,62.26 g/L
same,Creatinine,[1]; 24. Nov. 2004,89 µM
same,Amylase,[1]; 24. Nov. 2004,140
same,Chlorine,[1]; 24. Nov. 2004,115.3
same,Indirect bilirubin fraction,[1]; 24. Nov. 2004,96%
same,direct (line r9),[1]; 24. Nov. 2004,11.9%
same,indirect (line r11),[1]; 24. Nov. 2004,102 el
same,Erythrocytes,[1]; 24 Nov. 2004,3.84
same,Hemoglobin,[1]; 24 Nov. 2004,90
same,Leukocytes,[1]; 24 Nov. 2004,12.0
same,Thrombocytes,[1]; 24 Nov. 2004,210
same,Eosinophils,[1]; 24 Nov. 2004,2
same,Nuclear rods,[1]; 24 Nov. 2004,1%
same,Monocytes,[1]; 24 Nov. 2004,12%
same,Lymphocytes (line r11),[1]; 24 Nov. 2004,49
same,Nuclear segments,[1]; 24 Nov. 2004,6
same,feeling of pain,"[1]; Patient N, 55, ten days after start, i.v. infusions, enemas, oral solution",completely disappeared
same,body weight,"[1]; Patient N, after treatment",Weight regained
same,blood indices,"[1]; Patient N, during treatment",marked step-wise improvement
same,symptoms complained of,"[1]; Patient N, in 2 years",no symptoms
same,metastases in the liver,[1]; [4],no metastases were detected
same,tumor in the region of the anastomosis,[1]; [4],no tumor was detected
same,dyspnea,"[1]; Patient N, third week of treatment",less severe
same,body weight,[2]; after treatment,regained weight
same,tumor in the region of the bladder and rectum,[2]; full course over 6 months,disappeared
same,blood analyses against the treatment background,[2]; over 2 months,became normal
same,stools and feeling of pain,[2]; second week after start,the stools became normal and the feeling of pain disappeared
same,pain experienced on urination,[3]; 40 days powder oral and 2% suppository,decreased in intensity
same,"decrease of size of the prostate, ultrasound","[3]; after 40 days, before approximately 85 cm^3",40%
same,recurrence of the cancer,[3]; over 2 years,No recurrence
same,"prostate size, ultrasound",[3]; subsequent examination after further 2 weeks oral and enemas,approximately 35 cm^3
same,PSA,"[3]; subsequent examination, before 49.9 ng/mL",1 ng/mL

# From patent publication US20100144854A1 (priority 2007, published 2010)
